Measurements taken from patent publication EP3275434A1, “AN EXTENDED RELEASE ORAL DOSAGE FORM” (SANDOZ AG, priority 2016, dated 2018).

Assays:
[1] = blood plasma concentration of veliparib against time, immediate release 400 mg twice a day; type: in vivo; settings: 10 x 40 mg twice a day, daily dose 800 mg
From the text: The term peak plasma concentration is Cmax in blood plasma observed after administration. The term trough plasma concentration is Cmin in blood plasma observed after administration and just prior to the administration of a subsequent dose in a given dosage regimen. The veliparib plasma concentration can be determined according to the approach described in Mostafa et al., Cancer Chemother Pharmacol (2014) 74: 583-591. Pharmacokinetic terms have the typical meaning as recognized in the art and in case of doubt are to be interpreted according to the European Pharmacopoeia Version 8.8.
The present inventors have realized that the In-vivo plasma concentration profile of veliparib when administered as immediate release dosage forms at 400 mg BID, can be such that the blood plasma fluctuations are quite high. […] Thus, undesireably high peak concentrations are obtained in order to keep the trough concentration above a therapeutic threshold. In contrast, the extended release dosage form of the present invention enables the provision of therapeutically effective trough concentrations at all times without attaining such a high peak concentration. Moreover, when the extended release dosage form of the present invention is administered twice daily, even an overall dose reduction can be obtained while at the same time keeping the through concentration above the therapeutic threshold.
In this experiment 10 tablets containing 40 mg veliparib each prepared in accordance with Comparative example 1 are administered twice a day, 12h apart, to meet a daily dose of 800 mg. A plot displaying the pharmacokinetic behaviour of veliparib is obtained by plotting the blood plasma concentration of veliparib against time (Figure 1). […] The Cmax/Cmin ratio for veliparib is almost 7.

[2] = cited from earlier work

With `C[C@]1(c2nc3c(C(N)=O)cccc3[nH]2)CCCN1` [veliparib, 2-((R)-2-Methylpyrrolidin-2-yl)-1H-benzimidazole-4-carboxamide] the Cmax/Cmin ratio [1] was “about 7”, the Cmin [1] was “around 0.5 µg/ml” and the Cmax ([1]; plasma, po, 400 mg) was roughly 3500 ng/mL. For the same compound, the side effects reported ([2]; immediate release tablet at 2 x 400 mg per day) was “anemia, fatigue, nausea, pain and cough” and the elimination half-life ([2]; in vivo) was “about 6 hours”.
